Data from US11819489B2 (priority 2017, dated 2023).
Like-named read-outs stand apart in the source and are kept apart here.

Tests used:
[1] = tested on: K562 cells; experiment: cells; conditions: Homo sapiens, K562, 24 h
[2] = tested on: HL-60 cells; experiment: cells; conditions: Homo sapiens, HL-60, 24 h
[3] = tested on: HepG2 cells; experiment: cells; conditions: Homo sapiens, HepG2, 24 h
[4] = tested on: Chinese hamster (CH) solid tumour cells; experiment: cells; conditions: Cricetulus griseus, 24 h
[5] = tested on: KARPAS 45 cells; experiment: cells; conditions: Homo sapiens, 24 h
[6] = in vitro; conditions: human
[7] = in vitro; conditions: Chinese hamster
[8] = tested on: human peripheral blood mononuclear cells (hPBMC); experiment: cells; conditions: PBMC, 24 h
[9] = tested on: hPBMC; experiment: Cellular As uptake, hPBMC; assay type: cell-based, human; conditions: 24-h treatment, 1.5 μM As
Procedure: (§1) FIG. 24 is a graphical summary of the cellular As concentrations associated with the specified cell lines following 24-h treatment (1.5 μM As). The results are represented as the mean and standard deviation of triplicate samples.
(§2) FIG. 24 summarises the cellular As concentrations associated with the different cell types following 24-h treatment with the various As compounds (1.5 μM As). The leukemia cell lines, K562, HL-60, Kasumi-1 and KARPAS 45, are depicted in red (lighter of the filled in blocks), and the non-leukemia cell types are depicted in black (darkest shading), with the cancerous adherent cells, HepG2, in the diagonal stripes, and the normal cells, hPBMC, in solid black.

[10] = tested on: HL-60 cells; experiment: Cellular As uptake, HL-60 cells; assay type: cell-based, human; conditions: HL-60, 24-h treatment, 1.5 μM As
Procedure: as §1, §2

[11] = tested on: human peripheral blood mononuclear cells (hPBMC)
[12] = tested on: Kasumi-1 cells; experiment: Cellular As uptake, Kasumi-1 cells; assay type: cell-based, human; conditions: Kasumi-1, 24-h treatment, 1.5 μM As
Procedure: as §1, §2

[13] = tested on: KARPAS 45 cells; experiment: Cellular As uptake, KARPAS 45 cells; assay type: cell-based, human; conditions: 1.5 μM As
Procedure: as §1, §2

[14] = tested on: K562 cells
[15] = tested on: HepG2 cells; assay type: cell-based, human
[16] = tested on: Kasumi-1 cells; experiment: cells; conditions: Homo sapiens, Kasumi 1, 24 h
[17] = tested on: K562 cells; experiment: Cellular As uptake, K562 cells; assay type: cell-based, human; conditions: K562, 24-h treatment, 1.5 μM As
Procedure: as §1, §2

[18] = tested on: KARPAS 45 cells

Row | SMILES | IC50 [1] | viability at 1000 µM ([1]; read-out: K562 cells still viable) | IC50 [2] | IC50 [3] | IC50 [4] | IC50 [5] | viability [6] | viability [7] | IC50 [8] | cellular As concentration [9] | cellular As concentration [10] | IC50 [11] | cellular As concentration [12] | cellular As concentration in KARPAS 45 cells, times more than in HepG2 cells ([13]; 24-h treatment) | cellular As concentration ([13]; KARPAS 45, 24-h treatment) | IC50 [14] | cellular As concentration [15] | IC50 [16] | cellular As concentration [17] | IC50 [18]
1 | CC(=O)Nc1cc([As](=O)(O)O)ccc1O [Acetarsol] | > 1000 µM | 60.5% | > 1000 µM | > 1000 µM | > 1000 µM | > 1000 µM | ~100% | ~100% | > 1000 µM |  |  |  |  |  |  |  |  |  |  | 
2 | O=[As]O [Arsenite, Sodium meta-arsenite] | 18.6 ± 0.49 µM |  | 20 ± 1 µM | 89 ± 1 µM | 26.1 ± 0.8 µM | 66.2 ± 2.6 µM |  |  | 40.1 ± 7.7 µM | < 4×10^−14 g/cell | < 4×10^−14 g/cell | 40 ± 8 µM | < 4×10^−14 g/cell | 2.2 times | < 4×10^−14 g/cell | 18.6 ± 0.5 µM | < 4×10^−14 g/cell | 61.2 ± 0.6 µM | < 4×10^−14 g/cell | 66 ± 3 µM
